Measured values taken from ChEMBL document CHEMBL1154198, “Chemical genetics of Plasmodium falciparum” (Nature, 2010).

Columns and labels:
[1] = test system: Plasmodium falciparum; experiment: ST_JUDE: Plasmodium falciparum 3D7 EC50 (uM) as measured by SYBR green dye; type: functional, organism-based
[2] = test system: Plasmodium falciparum; experiment: ST_JUDE: Plasmodium falciparum K1 EC50 (uM) as measured by SYBR green dye; type: functional, organism-based

Row | Structure (SMILES) | EC50 [1] | EC50 [2]
1 | CCCCn1c(C)c(C(=O)OCC)c2cc(OC(C)=O)c(Br)cc21 | 2.76 µM | > 15 µM
2 | O=C(Nc1cccc(C(F)(F)F)c1)Nc1ccc(Cl)c(Cl)c1 | > 15 µM | 0.738 µM
3 | Cc1cc(N2CCC(N(C)C3CCCC3)CC2)nc2cc(O)ccc12 | 1.54 µM | > 15 µM
4 | CCCN1CCN(CCCNC(=O)c2ccc3c(c2)sc2nc(-c4ccc(OC)cc4)cn23)CC1 | 0.839 µM | > 15 µM
5 | CCCS(=O)(=O)N1CCC(CO)(Cc2ccccc2C(F)(F)F)CC1 | 3.37 µM | 2.26 µM
6 | Fc1ccccc1Nc1nc(NCc2ccccc2)c2ccccc2n1 | 3.46 µM | 9.11 µM
7 | COc1ccccc1/C=C/C(=O)Nc1ccc(Cl)c(C(F)(F)F)c1 | > 15 µM | > 15 µM
8 | CCN(CC)c1ccc(CNC(C)C(O)c2ccccc2)cc1 (stereo not given) | 4.1 µM | 0.98 µM
9 | CC(C)c1ccc(CN(Cc2ccco2)C(=O)COc2ccccc2Cl)cc1 | 7.43 µM | > 15 µM
10 | CCc1cccc2c(C#N)cn(CCOc3ccccc3F)c12 | 1.26 µM | 0.973 µM
11 | OCCN1CCN(c2nc(Nc3ccc(F)cc3)c3cnn(-c4ccccc4)c3n2)CC1 | 1.21 µM | 1.38 µM
12 | CC(C)(C)c1cc(C(=O)Cn2c(NCCO)nc3ccccc32)cc(C(C)(C)C)c1O | > 15 µM | > 15 µM
13 | COc1ccc(Cn2c(SCc3cccc(F)c3)nc3nccnc3c2=O)cc1 | > 15 µM | > 15 µM
14 | CC(C)(C)CC(C)(C)c1ccc(O)c(CN2CCN(c3ccccc3)CC2)c1 | 0.354 µM | 0.174 µM
15 | CCCCN1COc2c(c3c(C(C)=O)c(C)oc3c3ccccc23)C1 | > 15 µM | 4.31 µM
16 | CC(/C=N/NC(=O)c1cc(-c2ccc(OC(C)C)cc2)n[nH]1)=C\c1ccccc1 | > 15 µM | > 15 µM
17 | O=C(c1ccc(C(F)(F)F)cc1)N(Cc1ccc(OCc2ccc(F)cc2)cc1)Cc1cccnc1 | > 15 µM | > 15 µM
18 | O=C(Cc1ccccc1)NC(c1ccc([N+](=O)[O-])cc1)c1c(O)ccc2ccccc12 (stereo not given) | 6.31 µM | 5.77 µM
19 | CCc1c2cccn2cc[n+]1C | 7.07 µM | 6.08 µM
20 | Cc1ccc(C(NC(=O)CC(C)C)c2ccc3cccnc3c2O)cc1 (stereo not given) | > 15 µM | > 15 µM
21 | Cc1ccsc1CN(C(=O)COc1ccc(C(C)C)cc1)C1CCS(=O)(=O)C1 (stereo not given) | > 15 µM | > 15 µM
22 | COc1ccccc1/C=C/CN1CCC2(CCC(CNC(=O)C3CCOCC3)O2)CC1 (stereo not given) | > 15 µM | > 15 µM

Row | Structure (SMILES) | EC50 [1] | EC50 [2]
23 | O=C(Nc1cccc(Cl)c1)Nc1ccccc1OC(F)(F)C(F)F | 3.06 µM | 1.32 µM
24 | COc1ccc(CCNC(=S)Nc2ccccc2Cl)cc1 | 4.88 µM | 4.8 µM
25 | CCOC(=O)c1ccccc1NC(=S)N1CCCN(Cc2ccc(NC(C)=O)cc2)CC1 | 1.66 µM | 2.5 µM
26 | c1ccc(CN2CCN(c3nc(N(c4ccccc4)c4ccccc4)nc(-n4ccnc4)n3)CC2)cc1 | 2.46 µM | 1.81 µM
27 | O=C(C1CCCO1)N1N=C(c2c(O)nc3ccc(Cl)cc3c2-c2ccccc2)CC1c1ccco1 (stereo not given) | > 15 µM | > 15 µM
28 | Cc1cc(N(C)C)nc(Nc2ccc(NS(=O)(=O)c3cccc(Cl)c3)cc2)n1 | 7.69 µM | > 15 µM
29 | CCCc1cc(O)nc(-n2nc(C)cc2NC(=O)c2ccc(C(C)(C)C)cc2)n1 | > 15 µM | 8.64 µM
30 | COc1ccc2nc(N(Cc3cccnc3)C(=O)Cc3ccccc3)sc2c1 | 5.44 µM | 3.67 µM
31 | CCN(CC)CCN1C(=O)c2oc3ccccc3c(=O)c2C1c1cccc(Cl)c1 (stereo not given) | 0.984 µM | 1.08 µM
32 | COc1cccc(CNC(=O)C2c3ccccc3C(=O)N(CC(C)C)C2c2cccs2)c1 (stereo not given) | 5.27 µM | 4.13 µM
33 | COc1ccc(N2C(=O)/C(=C/Nc3ccccc3OC)c3ccccc3C2=O)cc1 | > 15 µM | > 15 µM
34 | O=C(Nc1ccc(Cl)cc1)C1c2ccccc2C(=O)N(C2CCCC2)C1c1cccs1 (stereo not given) | 0.556 µM | 1.07 µM
35 | CCN(CC)CC/N=c1\cc(-c2ccc(OC)c(OC)c2)oc2ccc(Cl)cc12.[O-][Cl+3]([O-])([O-])O | 0.543 µM | 5.14 µM
36 | Cc1n[nH]c(-c2ccc(OC(C)C)cc2O)c1Oc1ccccc1 | 5.66 µM | 2.91 µM
37 | CCN(CC)C(=O)c1ccc2c(c1)N(Cc1ccccc1)C(=O)c1ccccc1S2(=O)=O | > 15 µM | > 15 µM
38 | Cc1ccc(C)c(C(Nc2ccccn2)c2cc(Cl)c3cccnc3c2O)c1 (stereo not given) | > 15 µM | > 15 µM
39 | O=C(NNc1nc2ccc(F)cc2s1)c1ccc(F)cc1 | > 15 µM | 7.1 µM
40 | CCc1ccccc1NC(=O)C1c2ccccc2C(=O)N2CCc3ccccc3C12 (stereo not given) | 0.841 µM | 1.17 µM
41 | CCO/C(O)=C1\C(C)=NC2=C(C(=O)CC(C)(C)C2)C1c1ccc(Cl)cc1Cl (stereo not given) | 2.95 µM | 1.92 µM
42 | CN1C(=O)C(=Cc2ccc(-c3ccc(O)c(C(=O)O)c3)o2)C(=O)N(C)C1=O | > 15 µM | > 15 µM
43 | CCC1CCCCN1CCCNC(=S)Nc1ccc2nc(N3CCN(CC)CC3)cc(C)c2c1 (stereo not given) | 4.39 µM | 9.17 µM
44 | CCCCNc1ccc2cccc(O)c2n1 | > 15 µM | 4.37 µM

Row | Structure (SMILES) | EC50 [1] | EC50 [2]
45 | Cc1ccccc1C(=O)N(Cc1cccnc1)c1nc2c(F)cccc2s1 | 4.67 µM | > 15 µM
46 | O=C(CC1N=C2c3ccccc3N=C(SCc3ccc(F)cc3)N2C1=O)NCc1ccco1 (stereo not given) | 8.19 µM | 5.69 µM
47 | CNc1c([N+](=O)[O-])nn(-c2ccc(Cl)cc2)[n+]1[O-] | > 15 µM | 3.76 µM
48 | CCCc1cc(O)nc(-n2nc(C)cc2NC(=O)c2cc(Cl)ccc2Cl)n1 | > 15 µM | > 15 µM
49 | Cc1ccc(Nc2c(-c3ccccn3)nc3ccc(C)cn23)cc1 | 3.93 µM | > 15 µM
50 | Cc1ccc(S(=O)(=O)NCC(c2cccnc2)N2CCN(c3ccccc3F)CC2)cc1 (stereo not given) | > 15 µM | > 15 µM
51 | CCCOCc1cc(CN2CCN(c3cccc(Cl)c3)CC2)c(O)c2ncccc12 | 1.1 µM | 0.896 µM
52 | Oc1ccc(C(=C(Cl)Cl)c2ccc(O)cc2)cc1 | 2.47 µM | 0.927 µM
53 | Cc1cc(C)c2nc(NC(=O)CSc3ccc(F)cc3)sc2c1 | > 15 µM | > 15 µM
54 | O=C(c1cccc(F)c1)N(Cc1cccnc1)c1nc2ccc(F)cc2s1 | > 15 µM | 4.23 µM
55 | COc1nc(N=C(N)N)nc2c(C)cccc12 | 2.42 µM | 3.41 µM
56 | CN(C)S(=O)(=O)c1ccc(C(=O)NNc2nc3ccc(Cl)cc3s2)cc1 | 4.68 µM | 4.5 µM
57 | CCCCCCCn1c(=N)n(CC(O)COc2ccccc2)c2ccccc21 (stereo not given) | 1.59 µM | 1.43 µM
58 | CC(=O)Nc1ccc(S(=O)(=O)Nc2ccc(Nc3nc(C)cc(N4CCCC4)n3)cc2)cc1 | 0.57 µM | 3.44 µM
59 | CCCCOC(=O)c1ccc(Nc2cc(C)nc3ccccc23)cc1 | 3.4 µM | > 15 µM
60 | Cc1cc(NC(=O)CSc2ccc3nnc(-c4ccc(Cl)cc4)n3n2)no1 | > 15 µM | > 15 µM
61 | COc1ccc(OC)c2sc(NNC(=O)c3ccc(S(=O)(=O)N(C)C)cc3)nc12 | 6.72 µM | 6.61 µM
62 | COc1ccc(C(=O)CSc2nnc(Cc3cc(O)nc(O)n3)n2-c2ccc(Cl)cc2)cc1 | > 15 µM | > 15 µM
63 | CCCCOc1ccc(S(=O)(=O)Nc2ccc(Nc3nc(C)cc(N(C)C)n3)cc2)cc1 | 1.66 µM | > 15 µM
64 | CCOC(=O)C(NC(=O)CC)(Nc1ccc(S(=O)(=O)Nc2cc(C)on2)cc1)C(F)(F)F (stereo not given) | 4.49 µM | 8.98 µM
65 | CCOc1cc(C2C3=C(O)CC(c4ccc(Cl)cc4)CC3=NC(C)=C2C(=O)OC(C)C)ccc1O (stereo not given) | 1.54 µM | 1.62 µM
66 | CCOC(=O)c1cnc2ccc(OCC)cc2c1NCCCN1CCOCC1 | 1.08 µM | 2.36 µM

Row | Structure (SMILES) | EC50 [1] | EC50 [2]
67 | CCCCC(=O)NC(c1ccc(N(CC)CC)cc1)c1ccc2cccnc2c1O (stereo not given) | 1.65 µM | 3.01 µM
68 | CC(=O)Nc1ccc(S(=O)(=O)N2CCN(c3ccc(Nc4ccccc4)nn3)CC2)cc1 | 7.32 µM | > 15 µM
69 | CCCO/C(O)=C1\C(C)=NC2=C(C(=O)CC(c3ccc(Cl)cc3)C2)C1c1cccc(O)c1 (stereo not given) | 4.83 µM | 4.47 µM
70 | COc1ccc(C2Sc3ccccc3N=C3C2=C(O)c2ccccc23)cc1 (stereo not given) | 1.74 µM | 2.31 µM
71 | CC(=O)C1=C(c2ccc(Br)cc2)N(C(C)=O)n2cnnc2S1 | > 15 µM | 1.56 µM
72 | CCN(CC)CCNC(=O)CCc1nnc2n(Cc3ccc(Cl)cc3)c(=O)c3ccccc3n12 | > 15 µM | > 15 µM
73 | CCCOc1ccc(/C=C/c2ccc3cccc(O)c3n2)cc1 | > 15 µM | > 15 µM
74 | COc1cc(OC)cc(-c2nnc(NC(=O)c3cccc(S(C)(=O)=O)c3)o2)c1 | > 15 µM | > 15 µM
75 | COc1ccc(Nc2cc(C)nc(Nc3ccc(NS(=O)(=O)c4ccc(C)cc4)cc3)n2)cc1 | 0.559 µM | > 15 µM
76 | CCC1=Nc2cc(C(=O)NCc3ccco3)ccc2Sc2ccc(Cl)cc21 | 3.74 µM | 6.27 µM
77 | CCCN(CCC)CCCNC(=O)c1cc2c(-c3ccc(OC)c(OC)c3)nn(C)c2s1 | 4.04 µM | > 15 µM
78 | CN1CCN(Cc2c(O)ccc3c(=O)c(Oc4ccccc4Cl)c(C(F)(F)F)oc23)CC1 | 1.72 µM | 0.71 µM
79 | CN(C)S(=O)(=O)c1ccc(C(=O)NNc2nc3ccc(F)cc3s2)cc1 | 6.05 µM | 4.27 µM
80 | CC(C)CN1CCC(C(=O)Nc2ccc(-c3nc4ccccc4[nH]3)cc2)CC1 | > 15 µM | > 15 µM
81 | COc1cccc(OCC(=O)NCc2ccccc2)c1 | > 15 µM | > 15 µM
82 | COc1ccc(-n2c(C)cc(/C=c3\sc4nc5ccccc5n4c3=O)c2C)cc1 | > 15 µM | > 15 µM
83 | CC(=O)NC1=NN(C(C)=O)C(C)(c2cccc(NC(C)=O)c2)S1 (stereo not given) | 3.57 µM | 4.14 µM
84 | Cc1cccc(-n2ccnc2SCC(=O)Nc2cccc(F)c2)c1C | > 15 µM | 7.99 µM
85 | CN(C)c1ccc(-c2n(C)c3ccccc3[n+]2C)cc1 | > 15 µM | 4.36 µM
